The values below come from patent US10597735B2, “Antibacterial and plasmid elimination agents” (priority 2006, dated 2020).

For assay [1], the system named is C. crescentus. The class given is cell-based, Caulobacter crescentus. How it is done: Antibacterial activity: The peptides recovered from the selection were tested for antibacterial activity by incubating a 1:1,000 diluted saturated culture with the peptide overnight at room temperature. For each peptide a series of concentrations were tested. The mix was then plated, and the colonies were counted after a period incubation at 30° for C. crescentus or 37° C. for B. subtilis. For C. crescentus, PYE liquid media were incubated overnight at 30° C. at 250 rpm, and PYE plates were incubated for 3 days at 30° C. For B. subtilis, LB liquid media and plates were incubated overnight at 37° C. […]
Antibacterial activity of cyclic peptide inhibitors: Because ClpXP is essential in C. crescentus, we examined whether the inhibitory peptides have any effect when added exogenously to growing cultures. […] ClpXP is not essential in Bacillus subtilis, but mutants lacking ClpXP activity have growth and sporulation defects. […] No killing of E. coli or the related γ-proteobacteria Shigella flexneri and Vibrio cholera was observed. It remains to be determined if the selected cyclic peptides are effective against pathogenic bacterial that require the tmRNA-ClpXP pathway.

Assay [2] concerns the target T1, ClpXP (Escherichia coli, UniProt P0A6G7+P0A6H1). Put plainly: biochemical. The class given is biochemical, E. coli. Particulars: for Ki: purified peptides and E. coli proteins, GFP-tag. How it is done: In vitro proteolysis assays: Proteolysis of GFP-tag was performed using a continuous fluorescence assay essentially as previously described (Levchenko et al. 2000, Science 289: 2354-2356). Briefly, loss of GFP fluorescence was monitored at 507 nm after excitation at 395 nm at 30° C. using a Hitachi F-2000 Fluorescence Spectrophotometer in buffer R (25 mM HEPES-KOH (pH 7.6), 5 mM MgCl2, 50 mM KCl, 0.032% NP-40, 10% glycerol, and an ATP regeneration system containing 4 mM ATP (pH 7), 16 mM creatine phosphate and 0.32 mg/ml creatine kinase). Typically, reactions contained […], 0.3 μM ClpP14, and equimolar concentrations (0.2 μM-2.0 μM) GFP-tag and SspB. Degradation of GFP-tag protein was confirmed by SDS-PAGE assays. To examine inhibition of GFP-tag proteolysis, peptides were incubated with ClpXP in reaction buffer for 5 min prior to the addition of GFP-tag. Plots of fluorescence versus time were fit with a single exponential function to determine the initial rate of proteolysis. Kinetic parameters were estimated using Eadie-Hofstee plots.
Proteolysis of GFP-tag in the presence of ClpXP and SspB was monitored by loss of GFP fluorescence in a continuous fluorometric assay. In the absence of cyclic peptide, GFP-tag was degraded with kinetic parameters kcat=[…], KM=0.74±0.04 μM. […] Likewise, no degradation was observed when ClpX or ClpP were omitted from the reaction.

For assay [3], the target named is T1, ClpXP. Put plainly: ClpXP degradation of GFP-tag in the absence of SspB (Examples 1-2). The class given is biochemical, E. coli. Particulars: no SspB; for Ki: GFP-tag degradation by ClpXP. On the procedure:
(§1) ClpXP Proteolysis: PD buffer contained 25 mM HEPES-KOH (pH 7.6), 5 mM KCl, 5 mM MgCl2, 0.032% NP-40, 5 mM ATP, and 10% glycerol. The ATP regenerating system consisted of 8 mM creatine phosphate and 0.16 mg/ml creatine kinase. Inhibition experiments were performed using a Hitachi F-2000 Fluorescence Spectrophotometer. The rate of GFP-ssrA degradation was monitored at 30° C. for 5 minutes by the loss of fluorescence (excitation 488 nm; emission 507 nm). Competition experiments with increasing concentrations of peptide were performed using GFP-ssrA (0.2 μM), ClpX6 (0.3 ArM), ClpP14 (0.8 μM), and SspB2 (0.3 μM) in PD buffer plus 200 mM KCl and ATP regenerating system. Curve fitting for the competitive inhibition assays were performed using the Scientist program (MicroMath Scientific Software, Inc.).
A priori, there are several steps in the degradation pathway that could be inhibited by the selected cyclic peptides: binding of the substrate-SspB complex to ClpXP, ATPase activity of ClpX, and hydrolysis of the peptide bond by ClpP. Molecules that block the binding of substrate to SspB should not be inhibitors of proteolysis by ClpXP, because ClpXP will degrade tmRNA-tagged substrates in the absence of SspB. To determine if the inhibitors act through SspB, the kinetic assays were repeated in the absence of this proteolytic adaptor.

Assay [4] has as its target T1, ClpXP. The assay is described as follows: ClpXP degradation of GFP-tag in the presence of SspB, continuous fluorimetric assay (Examples 1-2). The class given is biochemical, E. coli. Particulars: GFP-tag degradation by ClpXP. On the procedure:
as §1
Characterization of ClpXP inhibitors in vitro: Two of the selected cyclic peptides were synthesized in vitro to examine their effects on enzymatic assays. Peptides with the sequence SGWRVQGPL (SEQ ID NO: 1) and SGSKGVLPL (SEQ ID NO: 2) were chemically synthesized in the linear form, circularized, and purified by HPLC. The effects of these peptides on the activity of purified ClpXP were determined in vitro using a continuous fluorimetric assay. GFP-tag, SspB, ClpX and ClpP were each purified from over-expressing strains of E. coli, and degradation of GFP-tag was monitored by loss of fluorescence. In reactions containing all components, GFP-tag was degraded with kinetic parameters kcat=1.79±0.08 min−1, KM=0.74±0.04, similar to the previously published values of 1.44 min^−1 and 0.96 μM. […] For both cyclic peptides, inhibition of ClpXP was reversible, as no inhibition was observed when ClpXP was incubated with peptide at concentrations above the Kr, and dialyzed to remove unbound peptide before addition of enzyme to the reaction. The linear versions of SGSKGVLPL (SEQ ID NO: 2) and SGWRVQGPL (SEQ ID NO: 1) had Kb, values >1 mM (Table 4), so the cyclic architecture is likely to be important for inhibition.

The test system of assay [5] is C. crescentus. The class given is cell-based, Caulobacter crescentus. The following applies: 14 h. How it is done:
Antibacterial activity assays: To measure the effects of peptides on bacterial growth, cultures of C. crescentus were diluted to OD600=0.001, peptide was added at various concentrations, the cultures were incubated at 30° C. for 14 h, and the MIC was determined as the lowest concentration of peptide that prevented growth. To determine the MBC, each culture was diluted 1:100 in PYE and 10 μl of the diluted culture was spread onto PYE agar plates, incubated at 30° C. overnight, and the number of colonies on each plate was counted. The MBC was assigned as the concentration of peptide that reduced the number of colonies by 99.9% compared to cultures with no inhibitor.

Assay [6] deals with T1, ClpXP. The assay is described as follows: ClpXP degradation of λO protein (Example 1). The class given is biochemical, E. coli. Particulars: concentrations near or 10-fold above the KI for GFP-tag. How it is done:
The differing effects of SspB on inhibition indicate that inhibitors for two different steps in the ClpXP degradation pathway were obtained from the genetic screen. To confirm the different specificities of these two inhibitors, the effects on ClpXP degradation of a substrate unrelated to tmRNA tagged proteins was assayed. Because ClpXP can recognize at least 5 different protein sequences as substrate determinants, it has been proposed that there are several substrate binding sites on the protease. Inhibitors that block one site of interaction are expected to affect degradation of only the substrates that bind at that site. Conversely, inhibitors that block catalysis or obstruct a binding site required by all substrates should affect degradation of any ClpXP substrate.

Assay [7] concerns GFP-tag degradation by ClpXP. The assay is described as follows: In vivo screen: GFP-tag reporter fluorescence in E. coli producing the cyclic peptide from a SICLOPPS plasmid, epifluorescence microscopy (Example 3). The class given is cell-based. How it is done: Screen for inhibitors of the tmRNA pathway: E. coli BW7786 cells containing the GFP-tag reporter and the SICLOPPS library were grown in LB broth with 30 μg/ml chloramphenicol, 100 μg/ml ampicillin, and 0.0002% arabinose at 37° C. to OD600=0.3. IPTG was added to a final concentration of 1 mM, and the culture was grown for 3 hours. Cells were sorted by fluorescence activated cell sorting (FACS) using a Beckman Coulter Elite cell sorter with Autoclone to isolate cells with GFP fluorescence, and selected cells were deposited on agar plates for clonal growth. Cells from each colony were grown in liquid culture as described above and examined by epifluorescence microscopy. The fluorescence intensity and the number of cells with fluorescence above background were scored using ImagePro software (MediaCybernetics). SICLOPPS plasmid DNA was prepared from selected clones and the region encoding the cyclic peptide was sequenced. Peptide sequences were obtained from conceptual translation of the DNA sequences.
Approximately 0.014% of the population had fluorescence over the background level, and 96 of these cells were isolated for clonal growth and characterization. To eliminate any clones that resulted from sorting errors or spurious accumulation of GFP, cells from each colony were cultured and examined by epifluorescence microscopy.

The subject of assay [8] is GFP-tag reporter. The assay is described as follows: GFP-tag reporter fluorescence in cells expressing SGW+5 SICLOPPS clones, epifluorescence microscopy (Example 1). The class given is cell-based, E. coli. The source says:
Clonal populations are obtained by spotting the cells with high fluorescence on agar plates, and cells from each colony are screened by epi-fluorescence microscopy for fluorescence intensity. SICLOPPS plasmids from clones that pass the microscopy screen were isolated and sequenced to identify the cyclic peptide that is produced in that clone.
A SICLOPPS library was constructed in which the cyclic peptide contains three constant amino acids, SGW, followed by five random amino acids encoded by NNS codons. This library was introduced into cells containing the GFP-tag reporter, and the expression of the reporter and cyclic peptide were induced. Approximately 690,000 cells were sorted by FACS and the brightest 50 were isolated. These 50 clones were grown individually in fresh medium, the expression of reporter and cyclic peptide was induced, and the culture was observed by epifluorescence microscopy. Two clones produced cultures in which nearly 100% of the cells were highly fluorescent.

The mark [9] stands for this setting: SspB present, read-out: KI value +SspB.

Values after ≈ are worked out from the molar mass of the structure shown. Like-named read-outs stand apart in the source and are kept apart here. Where a SMILES comes first, the peptide text is derived from it. Where no end group is shown, it is not given here. Bounds are passed on as bounds.

T1 sequence (P0A6G7 15-207): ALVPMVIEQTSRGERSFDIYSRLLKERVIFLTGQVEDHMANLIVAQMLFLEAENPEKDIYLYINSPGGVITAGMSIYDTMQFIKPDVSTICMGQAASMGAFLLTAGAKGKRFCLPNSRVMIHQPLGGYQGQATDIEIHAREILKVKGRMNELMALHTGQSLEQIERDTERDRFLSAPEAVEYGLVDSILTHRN
T1 sequence (P0A6H1 whole entry): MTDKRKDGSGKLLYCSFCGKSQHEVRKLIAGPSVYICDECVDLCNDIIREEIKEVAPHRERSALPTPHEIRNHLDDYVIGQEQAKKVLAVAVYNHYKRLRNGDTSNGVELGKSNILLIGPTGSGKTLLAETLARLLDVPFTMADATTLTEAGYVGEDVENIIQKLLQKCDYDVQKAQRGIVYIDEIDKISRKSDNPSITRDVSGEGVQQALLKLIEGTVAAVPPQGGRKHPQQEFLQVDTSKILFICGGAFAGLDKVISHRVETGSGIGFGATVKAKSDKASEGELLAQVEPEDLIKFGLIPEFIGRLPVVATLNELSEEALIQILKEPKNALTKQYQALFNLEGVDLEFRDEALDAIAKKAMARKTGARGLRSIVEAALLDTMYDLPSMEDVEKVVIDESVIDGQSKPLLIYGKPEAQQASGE

H-SGSKGVLPL-OH [linICP1, SGSKGVLPL]: the MIC (as a rule, the smallest concentration in the dilution series that meets the test's criterion for growth inhibition) in assay [1] was more than 250 µM. For the same compound, the “inhibition of ClpXP in vitro at concentrations up to 1 mM” value in assay [2] is recorded as “little inhibition”. For the same compound, the Ki (in general, the dissociation constant of the complex between target and ligand, obtained from inhibition or displacement) in assay [3] was more than 1500 µM; in assay [4] (setting [9]), more than 1500 µM; in assay [4] (read-out: Kb, values (KI) of linear versions) it was more than 1000 µM.
Compound H-SGWYGRRH-OH [linear IXP1, SGWYGRRH] returned a Ki in assay [2] (SspB present) of more than 1000 µM. Also, in assay [2], the “inhibition of ClpXP in vitro at concentrations up to 1 mM” value is reported as “little inhibition”. Further, in assay [5], the MBC (usually the lowest tested concentration that kills the bacteria rather than only halting them) was 481 ± 38 µM and the MIC was 385 ± 28 µM.
Take `CC(C)C[C@@H]1NC(=O)[C@@H]2CCCN2C(=O)[C@H](CC(C)C)NC(=O)[C@H](C(C)C)NC(=O)CNC(=O)[C@H](CCCCN)NC(=O)[C@H](CO)NC(=O)CNC(=O)[C@H](CO)NC1=O` [ICP1, SGSKGVLPL] (HELM PEPTIDE1{G.S.K.G.V.L.P.L.S}$PEPTIDE1,PEPTIDE1,1:R1-9:R2$$$V2.0): the “effect on degradation of λO protein by ClpXP” value in assay [6] is reported as “inhibited”. In assay [1], this compound gave an MIC of 62.2 µM (≈ 52.2 µg/mL). Besides, in assay [2] (SspB present), the “mode of inhibition of GFP-tag degradation” value is on record as “competitive inhibitors”. For the same compound, the “inhibition of ClpXP proteolysis of GFP-tag in vitro” value (from here on “inhibition … of GFP-tag in vitro”) in assay [2] (at the concentrations tested) is recorded as “inhibited”. In addition, the “inhibition of GFP-tag degradation by ClpXP in the absence of SspB” value in assay [3] is reported as “inhibited”.
In the case of SGWRVQGPL [linICP2, SGWRVQGPL], the MIC in assay [1] is more than 250 µM.
Regarding `CSCC[C@@H]1NC(=O)[C@H](Cc2c[nH]c3ccccc23)NC(=O)[C@H](CCCCN)NC(=O)[C@H](Cc2ccc(O)cc2)NC(=O)[C@@H]2CCCN2C(=O)[C@H](Cc2c[nH]c3ccccc23)NC(=O)CNC(=O)[C@H](CO)NC1=O` [Con62, SGWPYKWM, reference compound] (HELM PEPTIDE1{G.W.P.Y.K.W.M.S}$PEPTIDE1,PEPTIDE1,1:R1-8:R2$$$V2.0), the values for the MIC in assay [1] and in assay [5] were more than 250 µM and more than 600 µM, respectively. For the same compound, the Ki in assay [2] (SspB present), in assay [3] and in assay [4] (setting [9]) was more than 1000 µM each time. The compound further gave an MBC in assay [5] of more than 600 µM.
For the compound SGWHRRGM [linear IXP2, SGWHRRGM], in assay [5], the MBC came out at 376 ± 37 µM and the MIC is 304 ± 27 µM.
Regarding “SGGRGGRPL (also: cyclic, mode of cyclisation not given here) [IXP5]”, the “inhibition … of GFP-tag in vitro” value in assay [2] is listed as “did not inhibit”.
`CSCC[C@@H]1NC(=O)CNC(=O)[C@H](CCCNC(=N)N)NC(=O)[C@H](CCCNC(=N)N)NC(=O)[C@H](Cc2c[nH]cn2)NC(=O)[C@H](Cc2c[nH]c3ccccc23)NC(=O)CNC(=O)[C@H](CO)NC1=O` [IXP2, SGWHRRGM] (HELM PEPTIDE1{G.M.S.G.W.H.R.R}$PEPTIDE1,PEPTIDE1,1:R1-8:R2$$$V2.0): in assay [7] (cells with fluorescence at least 0.5 times that of ΔclpX cells producing GFP-tag), the “% fluorescent cells” value is recorded as 30-40%. The “GFP-tag fluorescence / inhibition in vivo” value in assay [7] (compared with ΔclpX strain) is “indistinguishable from the ΔclpX strain”. Further, the “average fluorescent intensity relative to cultures expressing ICP1 or ICP2” value in assay [8] is recorded as “more than twice”. The compound also returned a cells highly fluorescent in assay [8] (induced culture) of approximately 100%. In addition, the “inhibition … of GFP-tag in vitro” value in assay [2] (at the concentrations tested) is “did not inhibit”. The compound further returned a Ki in assay [2] (SspB present) of more than 1000 µM. Moreover, in assay [5], the MBC was more than 600 µM and the MIC is 430 ± 40 µM (≈ 416 µg/mL).
